Assay results published in US20070054884A1 (priority 2005, published 2007).
≈ marks a conversion by molar mass, not a printed value.

Assays:
B. cereus = experiment: Minimum Inhibitory Concentration (MIC), broth dilution method; type: cell-based; conditions: Bacillus cereus, read-out: MIC B. cereus
Experimental: (§1) Minimum Inhibitory Concentration (MIC), Broth Dilution Method:
(§2) The compounds of the present invention were tested against selected Gram positive and Gram negative organisms using standard microtitration techniques well known to those skilled in the art. Cultures of bacteria were initially applied by streaking a loopful onto agar plates under the appropriate conditions. For example, bacterial stocks are streaked for isolation of single colonies onto chocolate agar and then incubated for 18 hours at 35-37° C. in a 5% CO2 incubator. Five to ten colonies were picked from the chocolate agar plate for subculture to Brain-Heart infusion (BHI) broth, Mueller Hinton broth, or BHI containing 4% serum, and incubated under the appropriate conditions. The ability of the test compound to act as an antimicrobial was determined by the ability of dilutions of the test substance to inhibit bacterial growth in vitro. The optical density of the culture of organisms in the presence of an active compound was compared to the optical density of the same organism grown without test compound. The activity of the compounds is described as either negative or the lowest concentration inhibiting growth (Minimum Inhibitory Concentration [MIC]).
(§3) The activity of selected compounds of the present invention against representative Gram positive and Gram negative bacteria are shown in the following Table 1.

S. aureus 29213 = experiment: as above; type: cell-based; conditions: Staphylococcus aureus, 29213, read-out: MIC S. aureus 29213
Experimental: as §1, §2, §3

S. pneumoniae 11733 = experiment: as above; type: cell-based; conditions: Streptococcus pneumoniae, 11733, read-out: MIC S. pneumoniae 11733
Experimental: as §1, §2, §3

B.anthracis V770-NR1-R = experiment: microbe, parasite or virus in culture; type: cell-based; conditions: Bacillus anthracis, V770NR1R, read-out: MIC B.anthracis V770-NR1-R

| SMILES | melting point | MIC (B. cereus) | MIC (S. aureus 29213) | MIC (S. pneumoniae 11733) | MIC (B.anthracis V770-NR1-R) |
| --- | --- | --- | --- | --- | --- |
| N#Cc1cc(Cl)ccc1Oc1cc(N2CCOCC2)c(F)cc1O | 149 to 151 °C | – | – | – | – |
| O=C(O)c1cc(Oc2ccc(Cl)cc2Cl)c(O)cc1Cl | 192 to 196 °C | – | – | – | – |
| Oc1cc(Cl)c(N2CCOCC2)cc1Oc1ccc(Cl)cc1Cl [Example 1, 5-Chloro-2-(2,4-dichlorophenoxy)-4-morpholin-4-yl-phenol] | 187 to 188 °C | 800 µg/mL (≈ 2.14 mM) | 500 µg/mL (≈ 1.33 mM) | 1000 µg/mL (≈ 2.67 mM) | 1600 µg/mL (≈ 4.27 mM) |
| CN1CCN(c2cc(Oc3ccc(Cl)cc3Cl)c(O)cc2Cl)CC1 [Example 2, 5-Chloro-2-(2,4-dichloro-phenoxy)-4-(4-methyl-piperazin-1-yl)-phenol] | – | > 25000 µg/mL | 60 µg/mL (≈ 0.155 mM) | 250 µg/mL (≈ 0.645 mM) | > 25000 µg/mL |
| Oc1cc(Cl)c(-c2cccs2)cc1Oc1ccc(Cl)cc1Cl [Example 3, 5-Chloro-2-(2,4-dichloro-phenoxy)-4-thiophen-2-yl-phenol] | – | 50 µg/mL (≈ 0.135 mM) | 60 µg/mL (≈ 0.161 mM) | 10 µg/mL (≈ 0.0269 mM) | 50 µg/mL (≈ 0.135 mM) |
| Oc1cc(Cl)c(-c2ccco2)cc1Oc1ccc(Cl)cc1Cl [Example 4, 5-Chloro-2-(2,4-dichloro-phenoxy)-4-furan-2-yl-phenol] | – | – | 500 µg/mL (≈ 1.41 mM) | 500 µg/mL (≈ 1.41 mM) | – |
| Oc1cc(Cl)c(-c2ccsc2)cc1Oc1ccc(Cl)cc1Cl [Example 5, 5-Chloro-2-(2,4-dichloro-phenoxy)-4-thiophen-3-yl-phenol] | – | 200 µg/mL (≈ 0.538 mM) | 130 µg/mL (≈ 0.35 mM) | 10 µg/mL (≈ 0.0269 mM) | 400 µg/mL (≈ 1.08 mM) |
| OB(O)c1cc(Oc2ccc(Cl)cc2Cl)c(O)cc1Cl [Example 6, 2-Chloro-5-(2,4-dichloro-phenoxy)-4-hydroxy-phenylboronic acid] | 180 to 183 °C | – | 500 µg/mL (≈ 1.5 mM) | – | – |
| CCOC(=O)NC(=S)Nc1cc(Oc2ccc(Cl)cc2Cl)c(O)cc1Cl [Example 7] | 170 to 172 °C | 800 µg/mL (≈ 1.84 mM) | 2000 µg/mL (≈ 4.59 mM) | 31300 µg/mL (≈ 71.8 mM) | 1600 µg/mL (≈ 3.67 mM) |
| CCOC(=O)NC(=S)Nc1ccc(O)c(Oc2ccccc2O)c1 [Example 9, 1-[4-Hydroxy-3-(2-hydroxy-phenoxy)-phenyl]-3-(ethylozycarbonyl)thiourea] | – | 12500 µg/mL (≈ 35.9 mM) | 31300 µg/mL (≈ 89.8 mM) | 62500 µg/mL (≈ 179 mM) | 3100 µg/mL (≈ 8.9 mM) |
| Oc1cc(Cl)c(NC(=S)Nc2ccc(F)cc2)cc1Oc1ccc(Cl)cc1Cl [Example 10, 1-[2-Chloro-5-(2,4-dichloro-phenoxy)-4-hydroxy-phenyl]-3-(4-fluoro-phenyl)-thiourea] | 89 to 91 °C | 400 µg/mL (≈ 0.874 mM) | 4000 µg/mL (≈ 8.74 mM) | 31300 µg/mL (≈ 68.4 mM) | 1600 µg/mL (≈ 3.5 mM) |
| COc1ccc(NC(=S)Nc2cc(Oc3ccc(Cl)cc3Cl)c(O)cc2Cl)cc1 [Example 11, 1-[2-Chloro-5-(2,4-dichloro-phenoxy)-4-hydroxy-phenyl]-3-(4-methoxy-phenyl)-thiourea] | – | – | 7900 µg/mL (≈ 16.8 mM) | 31300 µg/mL (≈ 66.6 mM) | – |
| Oc1cc(Cl)c(NC(=S)NC2CCCCC2)cc1Oc1ccc(Cl)cc1Cl [Example 12, 1-[2-Chloro-5-(2,4-dichloro-phenoxy)-4-hydroxy-phenyl]-3-cyclohexyl-thiourea] | – | – | 2000 µg/mL (≈ 4.49 mM) | 31300 µg/mL (≈ 70.2 mM) | – |
| O=[N+]([O-])c1ccc(NC(=S)Nc2cc(Oc3ccc(Cl)cc3Cl)c(O)cc2Cl)cc1 [Example 13, 1-[2-Chloro-5-(2,4-dichloro-phenoxy)-4-hydroxy-phenyl]-3-(4-nitro-phenyl)-thiourea] | – | – | 1000 µg/mL (≈ 2.06 mM) | 15600 µg/mL (≈ 32.2 mM) | – |
| O=C(Nc1cc(C(F)(F)F)cc(C(F)(F)F)c1)Nc1cc(Oc2ccc(Cl)cc2Cl)c(O)cc1Cl [Example 15, 1-(3,5-Bis-trifluoromethyl-phenyl)-3-[2-chloro-5-(2,4-dichloro-phenoxy)-4-hydroxy-phenyl]-urea] | – | 100 µg/mL (≈ 0.179 mM) | 4000 µg/mL (≈ 7.15 mM) | – | 800 µg/mL (≈ 1.43 mM) |
| Oc1cc(Cl)c(NC(=S)Nc2cc(C(F)(F)F)cc(C(F)(F)F)c2)cc1Oc1ccc(Cl)cc1Cl [Example 16, 1-(3,5-Bis-trifluoromethyl-phenyl)-3-[2-chloro-5-(2,4-dichloro-phenoxy)-4-hydroxy-phenyl]-thiourea] | – | 100 µg/mL (≈ 0.174 mM) | 500 µg/mL (≈ 0.868 mM) | – | 200 µg/mL (≈ 0.347 mM) |

| SMILES | melting point | MIC (B. cereus) | MIC (S. aureus 29213) | MIC (S. pneumoniae 11733) | MIC (B.anthracis V770-NR1-R) |
| --- | --- | --- | --- | --- | --- |
| Oc1cc(Cl)c(-n2cccc2)cc1Oc1ccc(Cl)cc1Cl [Example 17, 5-Chloro-2-(2,4-dichloro-phenoxy)-4-pyrrol-1-yl-phenol] | 86 to 87 °C | 50 µg/mL (≈ 0.141 mM) | 250 µg/mL (≈ 0.705 mM) | – | 100 µg/mL (≈ 0.282 mM) |
| N#Cc1ccccc1Oc1cc(-n2cccc2)ccc1O [Example 18, 2-(2-Hydroxy-5-pyrrol-1-yl-phenoxy)-benzonitrile] | – | > 25000 µg/mL | 4000 µg/mL (≈ 14.5 mM) | 4000 µg/mL (≈ 14.5 mM) | > 25000 µg/mL |
| O=C(Nc1cc(Oc2ccc(Cl)cc2Cl)c(O)cc1Cl)c1ccco1 [Example 20, Furan-2-carboxylic acid [2-chloro-5-(2,4-dichloro-phenoxy)-4-hydroxy-phenyl]-amide] | – | > 25000 µg/mL | 4000 µg/mL (≈ 10 mM) | 2000 µg/mL (≈ 5.02 mM) | > 25000 µg/mL |
| Cc1nnsc1C(=O)Nc1cc(Oc2ccc(Cl)cc2Cl)c(O)cc1Cl [Example 21, 4-Methyl-[1,2,3]thiadiazole-5-carboxylic acid [2-chloro-5-(2,4-dichloro-phenoxy)-4-hydroxy-phenyl]-amide] | – | – | 4000 µg/mL (≈ 9.29 mM) | 4000 µg/mL (≈ 9.29 mM) | – |
| Cc1cc(C(=O)Nc2cc(Oc3ccc(Cl)cc3Cl)c(O)cc2Cl)no1 [Example 22, 5-Methyl-isoxazole-3-carboxylic acid [2-chloro-5-(2,4-dichloro-phenoxy)-4-hydroxy-phenyl]-amide] | – | – | 2000 µg/mL (≈ 4.84 mM) | 500 µg/mL (≈ 1.21 mM) | – |
| CC(=O)Nc1nc(C)c(S(=O)(=O)Nc2cc(Oc3ccc(Cl)cc3Cl)c(O)cc2Cl)s1 [Example 23, N-{5-[2-Chloro-5-(2,4-dichloro-phenoxy)-4-hydroxy-phenylsulfamoyl]-4-methyl-thiazol-2-yl}-acetamide] | – | – | 4000 µg/mL (≈ 7.65 mM) | 15700 µg/mL (≈ 30 mM) | – |
| Cc1cc(O)c(Oc2ccccc2C#N)cc1-c1cccs1 [Example 26, 2-(2-Hydroxy-4-methyl-5-thiophen-2-yl-phenoxy)-benzonitrile] | – | 12500 µg/mL (≈ 40.7 mM) | 4000 µg/mL (≈ 13 mM) | 500 µg/mL (≈ 1.63 mM) | 12500 µg/mL (≈ 40.7 mM) |
| Cc1cc(O)c(Oc2ccccc2C#N)cc1-c1ccsc1 [Example 27, 2-(2-Hydroxy-4-methyl-5-thiophen-3-yl-phenoxy)-benzonitrile] | – | 800 µg/mL (≈ 2.6 mM) | 6200 µg/mL (≈ 20.2 mM) | > 25000 µg/mL | 1600 µg/mL (≈ 5.21 mM) |
| Cc1cc(O)c(Oc2ccccc2C#N)cc1-c1ccco1 [Example 28, 2-(5-Furan-2-yl-2-hydroxy-4-methyl-phenoxy)-benzonitrile] | – | 1600 µg/mL (≈ 5.49 mM) | 2000 µg/mL (≈ 6.87 mM) | 500 µg/mL (≈ 1.72 mM) | 800 µg/mL (≈ 2.75 mM) |
| Cc1cc(O)c(Oc2ccccc2C#N)cc1-n1cccc1 [Example 29, 2-(2-Hydroxy-4-methyl-5-pyrrol-1-yl-phenoxy)-benzonitrile] | 158 to 160 °C | 4000 µg/mL (≈ 13.8 mM) | 62500 µg/mL (≈ 215 mM) | 500 µg/mL (≈ 1.72 mM) | – |
| Cc1cc(O)c(Oc2ccccc2C#N)cc1N1CCOCC1 [Example 31, 2-(2-Hydroxy-4-methyl-5-morpholin-4-yl-phenoxy)-benzonitrile] | – | 3100 µg/mL (≈ 9.99 mM) | 7900 µg/mL (≈ 25.5 mM) | 4000 µg/mL (≈ 12.9 mM) | 6200 µg/mL (≈ 20 mM) |
| Oc1cc(Cl)c(-n2cnnn2)cc1Oc1ccc(Cl)cc1Cl [Example 32, 5-Chloro-2-(2,4-dichloro-phenoxy)-4-tetrazol-1-yl-phenol] | 147 to 148 °C | 1300 µg/mL (≈ 3.64 mM) | 1600 µg/mL (≈ 4.47 mM) | 3100 µg/mL (≈ 8.67 mM) | 800 µg/mL (≈ 2.24 mM) |
| Oc1cc(Cl)c(-c2nnn[nH]2)cc1Oc1ccc(Cl)cc1Cl [Example 33, 5-Chloro-2-(2,4-dichloro-phenoxy)-4-(1H-tetrazol-5-yl)-phenol] | 174 to 180 °C | 6200 µg/mL (≈ 17.3 mM) | 200 µg/mL (≈ 0.559 mM) | – | 12500 µg/mL (≈ 35 mM) |
| N/C(=N/O)c1cc(Oc2ccc(Cl)cc2Cl)c(O)cc1Cl [Example 34, 2-Chloro-5-(2,4-dichloro-phenoxy)-4,N-dihydroxy-benzamidine] | 137 °C | 100 µg/mL (≈ 0.288 mM) | 100 µg/mL (≈ 0.288 mM) | – | 200 µg/mL (≈ 0.575 mM) |
| CCOC(=O)c1nc(-c2cc(Oc3ccc(Cl)cc3Cl)c(O)cc2Cl)no1 [Example 35, 3-[2-Chloro-5-(2,4-dichloro-phenoxy)-4-hydroxy-phenyl][1,2,4]oxadiazole-5-carboxylic acid ethyl ester] | 130 °C | 100 µg/mL (≈ 0.233 mM) | 200 µg/mL (≈ 0.466 mM) | – | 100 µg/mL (≈ 0.233 mM) |
| O=C(O)c1nc(-c2cc(Oc3ccc(Cl)cc3Cl)c(O)cc2Cl)no1 [Example 36, 3-[2-Chloro-5-(2,4-dichloro-phenoxy)-4-hydroxy-phenyl]-[1,2,4]oxadiazole-5-carboxylic acid] | 115 °C | 100 µg/mL (≈ 0.249 mM) | 200 µg/mL (≈ 0.498 mM) | – | 50 µg/mL (≈ 0.125 mM) |
